Results on 11 compounds are retold here after patent US20190010533A1, “METHODS FOR SCREENING AND SELECTING TARGET AGENTS FROM MOLECULAR DATABASES” (The Methodist Hospital System, priority 2017, published 2019).

Series [1] deals with primary neurons. As to the kind of experiment: time-lapse synaptogenesis assay (FM1-43 staining, KCl de-staining). Format: cell-based. How it is done: FIG. 6. Time-lapse synaptogenesis assay identifies pre-synaptic hyperactivity caused by thiorphan's treatments.
A high content screening (HCS) is carried out on existing 3,000 known drugs and compounds to systematically characterize the effects of known drugs or bioactive compounds on the Parkinson's Disease (PD) induced pluripotent stem (iPS) cell model, with the aim to identify effective hits that can be validated in PD mouse models. […] Cells were stained with FM1-43 (FIG. 6A) and de-stained by KCl stimulation (FIG. 6B). Time-lapse imaging was carried out from the dye uptake until the synapses were completely de-stained. […] A similar assay is applied in iPS cells as well as neuron cell models for PD. In addition to using the prevalence of synaptogenesis as the main readout for the high content screening (HCS), the heterogeneous nature of stem cell differentiation is addressed by identifying and quantifying the prevalence of novel phenotypes other than stem cell and synaptogenesis based on morphological features. Such consideration of cell population heterogeneity brings deeper insight in the HCS and can help identify potential compounds that are causing specific type of differentiations benefiting cure of PD.

Series [2] deals with pTau. As to the kind of experiment: primary high-content screening (HCS) for inhibition of pTau accumulation in neuron cells in 3D culture. Format: cell-based. From the text: This workflow to identify the mechanisms underlying those screening hits can be used to effectively discover more compounds that can generate similar phenotype. As a proof of concept, the transcriptomic profiles hosted by the Broad Institute'[…] warehouse^28-30 through the NIH LINCS program were used in the initial study.

Series [3] concerns canonical pathways. As to the kind of experiment: RNA-seq canonical pathway analysis of 3D AD #A5 cultures treated with anti-Aβ drugs. Format: cell-based, human. As to conditions: AD #A5 DMSO vs treated. The text has this: FIG. 7. […] Pearson correlations of global gene expression profile among 2D undifferentiated control ReN cells, 3D control (G2#B2on), AD #A5 (#A5, moderate Aβ42/40 ratio ˜0.2), AD #D4 (#D4, high Aβ42/40 ratio, ˜1.4), and AD #H10 (#H10, extra high Aβ42/40 ratio, ˜1.7). Units are log CPM. b. Volcano plots show −log10(FDR) vs log FC distribution for G2#B2 (control) vs AD #A5 (AD), AD #A5 DMSO vs AD #A5 BSI (BACE inhibitor, Ly2886721), and AD #A5 DMSO vs AD #A5 GSM (gamma secretase modulator, SGSM15606) transcriptomic signatures. […] Canonical pathway analysis between G2#B2 and AD #A5 (Ingenuity pathway analysis, Qiagen). d. Analysis of common canonical pathways. The pathway analysis among G2#B2 vs AD #A5, AD #A5 DMSO vs AD #A5 BSI, and AD #A5 DMSO vs AD #A5 GSM. Activation z-scores indicate that majority of decreased pathways in AD #A5 are restored by BSI and/or GSM treatments. e. […]
To examine the multiple single-clonal AD models, unbiased whole genome RNA-seq analyses were performed to compare gene expression profiles among the clonal AD models with different Aβ42/40 ratios, as compared to control 3D cultures and undifferentiated 2D control cells (FIG. 7a-d). […] Differential gene expression profile of 3D AD cultures were analyzed after treating anti-Aβ drugs (BACE1 inhibitor, Ly2886721; Gamma-secretase modulator (GSM), GSM15606) (FIG. 7b). […]

For series [4], the system named is pTau. As to the kind of experiment: cell-based validation in reformatted high content version of AD-in-a-dish model. As to conditions: 26 predicted compounds tested. The text has this: FIG. 2. Pilot SMART screen used 20 primary hits to identify 5 new compound hits that inhibit pTau (phospho-Tau or phosphorylated Tau).
Twenty-two of the 38 aforementioned screening hits had LINCS data covering the perturbation profiles for at least 4 cell lines. From these twenty-two hits, 2 were eliminated because no known drug candidates ranked high enough based on transcriptomic similarities to these two primary hits; and 3 others were removed upon inspection of the compound properties of the predictions they made, i.e., the predicted drugs may be toxic or unfit for systematic use. Thus, the 17 primary hits were used to initiate a pilot run using the SMART framework. The cMAP algorithm^7 was used to rank all compounds in the LINCSCloud, based on the similarity of transcriptomic profiles to each of the 17 primary hits. If any compound was determined by cMAP algorithm to have a similarity score larger than 90 to at least one of the primary hits, it was identified as a hit candidate. After filtering based on pharmacology features, 85 candidates predicted by 17 primary hits remained; 26 of these 85 compounds were purchased for validation after analysis for pharmacology and medical practice features.

In series [5] the test system is insoluble p-tau species (pSer396/Ser404, pThr181). The series is described as follows: Western blot analysis in 3D AD models with high Aβ42/40 ratios. It is filed as cell-based, human. As to conditions: various concentrations. The text has this:
(§1) FIG. 9. Validation of primary hit candidates. Primary hit candidates were confirmed using Western blot analysis (a) and quantitative immunofluorescence staining in 3D AD models with high Aβ42/40 ratios (#HReN and #A4H1) (b). PHF1 pSer396/Ser404 tau antibody was used to detect changes in phospho tau in 3D AD #HReN cells treated with DMSO vehicle, ebselen, or leflunomide.
(§2) In addition to MSD Mesoscale ELISA shown in FIG. 8, quantitative Western blot and immunofluorescence analysis were used to validate candidate drugs. […] Ebselen and leflunomide are compounds screened from original HCS screening of […] biologically active/FDA-approved drug library. […] Moreover, quantitative immunofluorescence staining was used to analyze p-tau changes after treating these compounds.

The subject of series [6] is p-tau (pSer396/Ser404). As to the kind of experiment: quantitative immunofluorescence staining in 3D AD models. As to conditions: 5 μM for 3 weeks. Format: cell-based, human.
Source text: as §1, §2

Series [7] has as its system 3D AD models. As to the kind of experiment: cellular viability and neurite networks in the immunofluorescence study. As to conditions: 5 μM for 3 weeks. It is filed as cell-based, human.
Source text: as §2

Series [8] concerns genes and pathways. As to the kind of experiment: whole genome RNAseq analysis after compound treatment versus control. Format: cell-based. The text has this:
FIG. 10A-10B. […] PPI information was extracted from STRING database version 10.5 with the cutoff for confidence score at 0.4.
Given ebselen and leflunomide in FIG. 9, an unbiased whole genome RNAseq analysis was used to obtain transcriptomic profiles after the treatment of each compound and compare them separately to control conditions. For both treatments, a subset of genes and pathways show significant change (|log FC|>1.5) in the same direction over control condition. […] These 22 genes have 102 PPI pairs among them, and there are 7 genes directly connected to APP (coding Aβ) or MAPT (coding Tau).
It's worth noting that the enrichment of immune and inflammatory related pathway changes is consistent with the characteristics of the 3D cell model, as this system contains astrocytes, which is one of the brain innate immune cells. […] Also, neuroinflammatory pathways are highly unregulated in high Abeta42/40 lines (D4 and H10) as compared to A5 (similar to GA2) (data not shown).

Structures can show the parent of a compound that is named as a salt. Where two headings read alike, the source gives them in different places.

In the case of `O=C(O)CNC(=O)C(CS)Cc1ccccc1` (stereo not shown) [thiorphan], the “pre-synaptic activity (FM dye uptake, automatic image quantification)” value in series [1] is on record as “causes pre-synaptic hyperactivity”. As to `C/C(=C\c1ccc(C(=O)O)cc1)c1ccc2c(c1)C(C)(C)CCC2(C)C` [TTNPB], in series [2], the “inhibition of pTau accumulation (primary screen hit status)” value (from here on “inhibition of pTau accumulation”) is recorded as “primary hit”. As for `Nc1ccc(-c2nc3ccc(-c4nc5ccc(N)cc5[nH]4)cc3[nH]2)cc1` [Ro90-7501], the “inhibition of pTau accumulation” value in series [2] is recorded as “primary hits”.

For `NC1=N[C@@]2(c3cc(NC(=O)c4ccc(F)cn4)ccc3F)COC[C@H]2CS1` [Ly2886721], the “pathways decreased in AD #A5 after treatment (activation z-scores)” value in series [3] was “restored”. As to `CC[N+](CC)(CC)CCOc1ccc(/C=C/c2ccccc2)cc1` [mg624], in series [2], the “inhibition of pTau accumulation” value is listed as “top-3 hits”. For `C1CCC(C(CC2CCCCN2)C2CCCCC2)CC1` (stereo not shown) [Perhexiline, perhexiline maleate], in series [4], the “inhibition of pTau in validation” value is listed as “successful predictions”.

For `N=C(N)c1ccc(OCCCCCOc2ccc(C(=N)N)cc2)cc1` [pentamidine], the “inhibition of pTau accumulation” value in series [2] is given as “top-3 hits”. `Oc1c(Cl)cc(Cl)c2cccnc12` [chloroxine]: the “inhibition of pTau in validation” value in series [4] is reported as “validated hits”. Take `COc1nc(-c2cc(C)c(NC(C)c3ccc(F)cc3)nn2)ccc1-n1cnc(C)c1` (stereo not shown) [SGSM15606]: in series [3], the “pathways decreased in AD #A5 after treatment (activation z-scores)” value is given as “restored”. Regarding ivermectin, the “inhibition of pTau accumulation” value in series [2] is listed as “top-3 hits”; in series [2] (listed as Ivermectin), “most significant phenotype”.

In the case of `Cc1oncc1C(=O)Nc1ccc(C(F)(F)F)cc1` [leflunomide], in series [5], the “insoluble p-tau species (pSer396/Ser404, pThr181)” value is recorded as “significantly decreased”. Also, the “p-tau (pSer396/Ser404) accumulation” value in series [6] was “robustly decreased”. For the same compound, the “cellular viability and neurite networks” value in series [7] was “without affecting”. In addition, the “pathways changed after treatment” value in series [8] (5 of 6 pathways connected to 12 down-regulated genes) was “significantly down-regulated”. Besides, in series [8] (|log FC|>1.5, shared by both treatments), the “genes with significant change versus control” value was 15 down-regulated and 7 up-regulated genes.
